Laboratory results as given in US8765422B2, “D4 desaturases and D5 elongases” (priority 2007, dated 2014).
“And” between values parts separate entries of the source, which are not always exact repeats. Equal values may be shown once.

What was measured:
[1] = test system: Δ5-elongase from Thraustochytrium ONC-T18; test: Δ5-elongase (clone pYElo) expressed in Saccharomyces cerevisiae INVSc1, fed free fatty acid substrate, percent conversion by FAME GC; type: cell-based, Thraustochytrium sp. ONC-T18; conditions: pYElo in yeast
Method: The activity and specificity of the D4-desaturase and D5 elongase were determined using the yeast expression system. The transformed yeast was grown in SC-U medium containing 2% glucose, 1% Tergitol NP-40 for 48 hrs, 150 RPM at 30° C. A substrate medium was prepared containing SC-U, 2% galactose, 1% raffinose, 1% Tergitol NP-40 and 500 μM specific free fatty acid. The transformed yeast culture was inoculated into 100 ml substrate medium at an OD600 of 0.5 and cultures incubated at 20° C. for 5 days. The biomass was recovered by centrifugation at 2000 RPM for 5 min, washed once with 100 mM phosphate buffer (pH 7.0), then freeze dried. Fatty acid methyl ester gas chromatography was subsequently carried out to determine the efficiency of fatty acid desaturation and elongation. The percent conversion of the substrate was determined by calculating (product)/(substrate+product)*100. […]
The negative control strain was INVSc1 containing the unaltered pYES2 vector, and these were grown simultaneously. […] The FAMEs were resuspended in iso-octane and analysed by GC-FID. The percent conversion was calculated by dividing the product produced by the sum of (the product produced+the substrate added) and then multiplying by 100. […]

[2] = test system: Δ4-desaturase from Thraustochytrium ONC-T18; test: Δ4-desaturase (clone pYDes) expressed in Saccharomyces cerevisiae INVSc1, fed free fatty acid substrate, percent conversion by FAME GC; type: cell-based, Thraustochytrium sp. ONC-T18; conditions: for % conversion average, vector pYDes: pYDes in INVSc1, 500 μM substrate, GC-FID of FAMEs; for % conversion average, vector pYDes / % conversion With 0.01% ferric citrate: 96 hours at 20° C.; for increase With 0.01% ferric citrate: conversion with 0.01% ferric citrate versus without; for % conversion average (substrate to product) / % conversion With 0.01% ferric citrate: pYDes in yeast; for % conversion average (substrate to product): 500 μM free fatty acid substrate, 20° C., (product)/(substrate+product)*100; for % conversion With 0.01% ferric citrate: 500 μM substrate
Method: The activity and specificity of the D4-desaturase and D5 elongase were determined using the yeast expression system. The transformed yeast was grown in SC-U medium containing 2% glucose, 1% Tergitol NP-40 for 48 hrs, 150 RPM at 30° C. A substrate medium was prepared containing SC-U, 2% galactose, 1% raffinose, 1% Tergitol NP-40 and 500 μM specific free fatty acid. The transformed yeast culture was inoculated into 100 ml substrate medium at an OD600 of 0.5 and cultures incubated at 20° C. for 5 days. The biomass was recovered by centrifugation at 2000 RPM for 5 min, washed once with 100 mM phosphate buffer (pH 7.0), then freeze dried. Fatty acid methyl ester gas chromatography was subsequently carried out to determine the efficiency of fatty acid desaturation and elongation. The percent conversion of the substrate was determined by calculating (product)/(substrate+product)*100.
Clone pYDes, which consisted of the full length Δ4-desaturase cloned into pYES2 (Invitrogen, Carlsbad, Calif.), and clone pYElo, which consisted of the full-length Δ5-elongase gene in pYES2, were transformed into competent Saccharomyces cerevisiae INVSc1. Yeast transformation was carried out using the S. c. EasyComp Transformation kit (Invitrogen, Carlsbad, Calif.) according to conditions specified by the manufacturer. Transformants were selected for uracil auxotrophy on media lacking uracil (SC-Ura). To detect the specific desaturase activity of these clones, transformants were grown in the presence of 500 μM specific fatty acid substrates as listed below: A) Docosapentaenoic acid (22:5n-3) (conversion to docosahexaenoic acid would indicate Δ4-desaturase activity), B) Docosatetraenoic acid (22:4n-6) (conversion to docosapentaenoic acid (22:5n-6) would indicate Δ4-desaturase activity), C) Dihomo-gamma-linolenic acid (20:3n-6) (conversion to arachidonic acid (20:4n-6) would indicate Δ5-desaturase activity), D) Eicosapentaenoic acid (20:5n-3) (conversion to docosapentaenoic acid (22:5n-3) would indicate Δ5-elongase activity), E) Arachidonic acid (20:4n-6) (conversion to docosatetraenoic acid (22:4n-6) would indicate Δ5-elongase activity)
The negative control strain was INVSc1 containing the unaltered pYES2 vector, and these were grown simultaneously. The cultures were vigorously agitated (150 rpm) and grown for 96 hours at 20° C. in the presence of 500 μM (final concentration) of the various substrates. The cells were pelleted and washed in 100 mM phosphate buffer, pH 7.0, cell pellets were freeze dried. The lipids were then extracted and derivitized to fatty acid methyl esters (FAME) for gas chromatography analysis (GC). Transesterification and extraction was done using 100 mg freeze dried cells, with C19:0 as internal standard, added transesterification reaction mix (methanol: hydrochloric acid: chloroform, 10:1:1) mixed and heated at 90° C. for 2 hours, then allowed to cool at room temperature. FAMEs were extracted by adding 1 ml water, and 2 ml hexane: chloroform (4:1), and allow organic and aqueous phases to separate. The organic layer was extracted and treated with 0.5 g of anhydrous sodium sulfate to remove particulates and residual water. The organic solvents were evaporated under a stream of argon. The FAMEs were resuspended in iso-octane and analysed by GC-FID. The percent conversion was calculated by dividing the product produced by the sum of (the product produced+the substrate added) and then multiplying by 100.
Clone pYDes, which consisted of the full length Δ4-desaturase cloned into pYES2 (Invitrogen, Carlsbad, Calif.), was transformed into competent Saccharomyces cerevisiae INVSc1. The negative control strain was INVSc1 containing the unaltered pYES2 vector, and these were grown simultaneously.

Compound	conversion of substrate by pYElo [1]	% conversion average, vector pYDes [2] [%]	increase With 0.01% ferric citrate [2] [fold]	% conversion average (substrate to product) [2]	% conversion With 0.01% ferric citrate [2] [%]	further results
CCCCC/C=C\C/C=C\C/C=C\C/C=C\CCCC(=O)O [ARA, Arachidonic acid (20:4n-6)]	minimal conversion	–	–	–	–	–
CCCCC/C=C\C/C=C\C/C=C\CCCCCCC(=O)O [DGLA, Dihomo-gamma-linolenic acid (20:3n-6)]	–	0.87	–	–	–	–
CC/C=C\C/C=C\C/C=C\C/C=C\C/C=C\CCCCCC(=O)O [DPA, Docosapentaenoic acid (22:5n-3)]	–	14	2.75	14.04%	38.70	% conversion average, vector pYDes ([2]; listed as C22:5 n-3): 14.04%; % conversion average (substrate to product) ([2]; listed as DPA n-3): 14%; DPA to DHA conversion on addition of ferric citrate to the media ([2]; pYDes, trace metal ferric citrate added): increase
CCCCC/C=C\C/C=C\C/C=C\C/C=C\CCCCCC(=O)O [DTA, Docosatetraenoic acid (22:4n-6)]	–	14	2.43	14% and 13.76%	33.43	% conversion average, vector pYDes ([2]; listed as C22:4 n-6): 13.76%
CC/C=C\C/C=C\C/C=C\C/C=C\C/C=C\CCCC(=O)O [EPA, Eicosapentaenoic acid (20:5n-3)]	minimal conversion	–	–	–	–	–
